Test results from publication PMC4870556, “Triazole resistance mediated by mutations of a conserved active site tyrosine in fungal lanosterol 14α-demethylase” (Scientific Reports, 2016).
Like-named read-outs stand apart in the source and are kept apart here.

How the values were obtained:
[1] = target: T1, wild type ScErg11p6 × His (Saccharomyces cerevisiae, UniProt P10614); test: Type II difference spectra triazole binding to affinity purified wild type enzyme; settings: for Hill number / IC50 / Kd: wild-type enzyme 1 μM; for IC50 / Kd: Hill equation fit; for IC50: IC50 value is denoted as [Azole]0.5; for Kd: standard error in brackets; for ΔAmax of type II difference spectra: wild-type enzyme, Ni-NTA affinity purified
T1 construct: full-length Saccharomyces cerevisiae hexahistidine-tagged Erg11p (ScErg11p6 × His); made in house; host or cells: Saccharomyces cerevisiae strain AD3ΔScErg11p (overexpression from the PDR5 locus, native ERG11 deleted)
T1 sequence (P10614 whole entry): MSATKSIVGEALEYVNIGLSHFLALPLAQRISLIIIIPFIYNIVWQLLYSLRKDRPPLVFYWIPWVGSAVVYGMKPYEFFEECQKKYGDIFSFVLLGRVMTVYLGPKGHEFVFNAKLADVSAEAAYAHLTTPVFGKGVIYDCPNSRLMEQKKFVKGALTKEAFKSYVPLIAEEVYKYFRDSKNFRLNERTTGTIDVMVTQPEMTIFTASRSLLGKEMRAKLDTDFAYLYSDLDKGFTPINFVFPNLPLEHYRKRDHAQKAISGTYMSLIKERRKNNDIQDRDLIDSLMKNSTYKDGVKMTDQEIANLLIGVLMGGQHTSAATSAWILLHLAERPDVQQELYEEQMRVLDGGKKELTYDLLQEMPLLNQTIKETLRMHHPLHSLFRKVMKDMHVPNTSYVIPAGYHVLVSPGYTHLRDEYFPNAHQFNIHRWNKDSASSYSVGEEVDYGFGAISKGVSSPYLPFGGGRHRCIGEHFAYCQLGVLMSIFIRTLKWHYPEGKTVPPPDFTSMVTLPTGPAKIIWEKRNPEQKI
Protocol: (§1) Ni-NTA affinity purified mutant and wild type ScErg11p6 × His preparations (1 μM) were used to detect and quantitate type II azole binding. The spectral shift of the Soret peak from 417 nm to 421–424 nm in cytochrome P450s is also detected by the type II difference spectra. This change is associated with the replacement of a water molecule coordinated to the heme iron with the azole heterocycle. Type II difference spectra were obtained for FLC, VCZ, ITC and PCZ binding to both mutant enzymes. The binding of FLC is shown as an example (Fig. 2b). The type II difference spectra for the mutant enzymes were less intense than for the wild type enzyme. They gave 2–3-fold smaller differences in absorbance (ΔAmax), with peaks shifted from 428 nm for wild type enzyme to 424–425 nm for the mutant enzymes plus less well-defined troughs between 406–410 nm (Supplementary Table S3). […] These values indicate tight binding for each drug tested.
(§2) The concentration of functional cytochrome P450 for drug binding studies was determined using the carbon monoxide binding spectra according to the protocol described by Guengerich et al.[33]. Affinity purified ScErg11p6 × His used for spectroscopic assays was eluted using affinity purification buffer containing 50 mM L-histidine instead of imidazole. L-histidine was removed from the sample by washing the enzyme with solubilisation buffer containing 16 mM DM using 50 kDa molecular-weight cut-off Amicon Ultra-4 centrifugal filters (Merck Millipore Ltd, Cork, Ireland). The removal of L-histidine was checked by taking the absolute spectra of the sample using the Ultrospec™ 6300 pro UV/Visible spectrophotometer. The heme peak for wild type protein with no ligand was at ~417 nm. With L-histidine bound the peak was detected at ~420 nm. Enzyme concentration was determined by saturating the sample cuvette with CO gas prior to the addition of sodium dithionite. The reference cuvette containing the same amount of enzyme was treated with sodium dithionite only. The P450 concentration was determined by measuring the difference in absorbance between 446 and 490 nm and using the extinction coefficient of 91 mM^−1 cm^−1 [58]. Absorption spectra were recorded with a Cary 1 Bio UV-visible spectrophotometer using 10 mm path UV transparent plastic cuvettes (GE Healthcare Life Sciences, UK). Difference spectra were measured using 1 μM ScErg11p6 × His wild type or Y140F/H enzyme titrated with the triazole drugs ITC, PCZ, VCZ and FLC. Triazole drugs dissolved in DMSO were added to the sample cuvette, with the same amount of DMSO added to the reference cuvette. The total amount of DMSO was <2% of the total volume in the cuvette. Difference spectra between 350–500 nm were recorded and the trough-peak absorbance changes were used to plot binding curves. The dissociation constant Kd for type II binding of triazole drugs was calculated using GraphPad Prism 6 Software (GraphPad Prism, San Diego, CA) by applying the Hill equation using the formula ΔA = ΔAmax [Azole]^n/([Azole]^n + Kd^n), with ΔAmax being the maximum change in absorbance and [Azole] the azole concentration.

[2] = tested on: AD3ΔScErg11p_Y140F; test: Broth microdilution MIC80, strain overexpressing Y140F enzyme; type: cell-based, Saccharomyces cerevisiae; settings: 80% growth inhibition, SD medium pH 6.8, 30 °C, 48 hrs, native ERG11 deleted
Protocol: (§3) Susceptibilities to triazole drugs of S. cerevisiae AD3Δ strains overexpressing Erg11p6 × His Y140F/H, but with the native ERG11 deleted, were measured as liquid MIC80 values (Supplementary Table S2). Overexpression of ScErg11p6 × His Y140F in the AD3ΔScErg11p_Y140F strain conferred 2-fold lower susceptibility to FLC than the strain overexpressing wild type ScErg11p6 × His i.e. MIC80 of 4.0 μg/ml and 2.1 μg/ml, respectively. The same mutant conferred a 1.7-fold reduction in susceptibility to VCZ. The MIC80 values were 0.42 μg/ml for the strain overexpressing ScErg11p6 × His Y140F and 0.25 μg/ml for the strain overexpressing wild type ScErg11p6 × His.
The S. cerevisiae AD2Δ host was used to create the strains used in this study. The strain was made by deletion of the HIS1 gene from the previously described ADΔ[49] strain. ADΔ and AD2Δ lack 7 major ATP-binding cassette transporters and the PDR3 gene. Both strains have the gain-of function pdr1–3 mutation in the PDR1 transcriptional regulator gene to provide constitutive overexpression of ScErg11p6 × His from the PDR5 locus. Yeast strains were grown on YPD medium: 1% (wt/vol) Bacto-yeast extract (BD Difco™ Laboratories Inc, Franklin Lakes, NJ), 2% (wt/vol) Bacto-peptone (BD Difco™) and 2% (wt/vol) glucose. Synthetic defined (SD) medium was used for selection of transformants. It contained 2% (wt/vol) glucose, 0.67% (wt/vol) yeast nitrogen base without amino acids (BD Difco™), 2% (wt/vol) agar (Oxoid Ltd., Hampshire, UK) and either uracil drop-out (Qbiogene, Irvine, CA) or histidine drop-out (Formedium™, Norfolk, UK) complete supplement mixture. Liquid SD media with complete supplement mixture (Formedium™) containing 10 mM MES and 20 mM HEPES buffered with TRIS to pH 6.8 was used for MIC80 determinations.
(§4) The susceptibilities of strains overexpressing wild type ScErg11p6 × His and ScErg11p6 × His Y140F/H to triazole drugs were measured as MIC80 values using broth microdilution assays. The MIC80s were defined as 80% growth inhibition compared to no drug controls because triazole drugs are fungistatic rather than fungicidal and can give trailing growth. MIC80s to FLC, ITC and VCZ were determined in 96-well microtiter plates using SD buffered to pH 6.8 instead of RPMI[50]. Cells were seeded at OD600nm = 0.005 (1.5 × 10^4 CFU) and the plates were incubated in 30 °C with shaking at 200 rpm for 48 hrs. Cell growth was assessed by measuring the OD600nm of wells using a BioTek Synergy™ 2 multi-mode plate reader (BioTek Instruments, Vermont, USA). Each MIC80 was determined using triplicate measurements for three clones of each strain in three separate experiments.

[3] = target: T2, ScErg11p6 × His Y140F (Saccharomyces cerevisiae, UniProt P10614, Y140F); test: Type II difference spectra triazole binding to affinity purified Y140F mutant enzyme; settings: for Hill number / IC50 / Kd: Y140F enzyme 1 μM; for IC50 / Kd: Hill equation fit; for IC50: IC50 value is denoted as [Azole]0.5; for Kd: standard error in brackets; for ΔAmax of type II difference spectra: Y140F enzyme, Ni-NTA affinity purified
T2 construct: full-length Saccharomyces cerevisiae hexahistidine-tagged Erg11p (ScErg11p6 × His); made in house; host or cells: Saccharomyces cerevisiae strain AD3ΔScErg11_Y140F (native ERG11 deleted)
T2 sequence (P10614 whole entry Y140F): as the sequence (P10614 whole entry) above, with Y140F counted along it
Protocol: as §1, §2

[4] = tested on: AD3ΔScErg11p (strain overexpressing wild type ScErg11p6 × His); test: Broth microdilution MIC80, strain overexpressing wild type enzyme; type: cell-based; settings: Saccharomyces cerevisiae, 48 h, pH 6.8
Protocol: as §3
The S. cerevisiae AD2Δ host was used to create the strains used in this study. The strain was made by deletion of the HIS1 gene from the previously described ADΔ[49] strain. ADΔ and AD2Δ lack 7 major ATP-binding cassette transporters and the PDR3 gene. Both strains have the gain-of function pdr1–3 mutation in the PDR1 transcriptional regulator gene to provide constitutive overexpression of ScErg11p6 × His from the PDR5 locus. Yeast strains were grown on YPD medium: 1% (wt/vol) Bacto-yeast extract (BD Difco™ Laboratories Inc, Franklin Lakes, NJ), 2% (wt/vol) Bacto-peptone (BD Difco™) and 2% (wt/vol) glucose. Synthetic defined (SD) medium was used for selection of transformants. […]
as §4, with “The MIC80s were defined as 80% growth inhibition compared to no drug controls because triazole drugs are fungistatic rather than fungicidal and can give trailing growth.” left out, “Cells were seeded at OD600nm = 0.005 (1.5 × 10^4 CFU) and the plates were incubated in 30 °C with shaking at 200 rpm for 48 hrs.” left out

[5] = target: T3, ScErg11p6 × His Y140H (Saccharomyces cerevisiae, UniProt P10614, Y140H); test: Type II difference spectra triazole binding to affinity purified Y140H mutant enzyme; settings: for Hill number / IC50 / Kd: Y140H enzyme 1 μM; for IC50 / Kd: Hill equation fit; for IC50: IC50 value is denoted as [Azole]0.5; for Kd: standard error in brackets; for ΔAmax of type II difference spectra: Y140H enzyme, Ni-NTA affinity purified
T3 construct: full-length Saccharomyces cerevisiae hexahistidine-tagged Erg11p (ScErg11p6 × His); made in house; host or cells: Saccharomyces cerevisiae strain AD3ΔScErg11_Y140H (native ERG11 deleted)
T3 sequence (P10614 whole entry Y140H): as the sequence (P10614 whole entry) above, with Y140H counted along it
Protocol: as §1, §2

CCC(C)n1ncn(-c2ccc(N3CCN(c4ccc(OCC5COC(Cn6cncn6)(c6ccc(Cl)cc6Cl)O5)cc4)CC3)cc2)c1=O (stereo not drawn) [ITC, itraconazole]
Hill number [1]: 1.6 | IC50 [1]: 280 nM | Kd [1]: 123 nM | ΔAmax of type II difference spectra [1]: 0.037 | MIC80 [2]: 0.09 µg/mL | MIC80 ([2]; Saccharomyces cerevisiae, read-out: MIC80): 0.09 µg/mL | Hill number [3]: 1.83 | IC50 [3]: 330 nM | Kd [3]: 130 nM | ΔAmax of type II difference spectra [3]: 0.014 | MIC80 [4]: 0.105 µg/mL | Hill number [5]: 1.48 | IC50 [5]: 250 nM | Kd [5]: 130 nM | ΔAmax of type II difference spectra [5]: 0.016

CC[C@@H]([C@H](C)O)n1ncn(-c2ccc(N3CCN(c4ccc(OC[C@@H]5CO[C@@](Cn6cncn6)(c6ccc(F)cc6F)C5)cc4)CC3)cc2)c1=O [PCZ, posaconazole]
Hill number [1]: 2.2 | IC50 [1]: 320 nM | Kd [1]: 78 nM | ΔAmax of type II difference spectra [1]: 0.031 | Hill number [3]: 1.57 | IC50 [3]: 290 nM | Kd [3]: 150 nM | ΔAmax of type II difference spectra [3]: 0.016 | Hill number [5]: 1.57 | IC50 [5]: 230 nM | Kd [5]: 100 nM | ΔAmax of type II difference spectra [5]: 0.016
